Results taken from US20230125585A1, “DOSING PROTOCOLS AND REGIMENS FOR AMINOSTEROL TREATMENT” (Enterin, Inc., priority 2019, published 2023).
Read-outs that look alike come from different tables or passages of the source.

What was measured:
[1] = short term placebo controlled trial, PD constipation; cited from earlier work
α-synuclein protein = α-synuclein protein (Homo sapiens, UniProt P37840); conditions: cited from earlier work
mouse stomach mRNA = experiment: Oral dosing of squalamine (ENT-01) in old mice, stomach transcriptome by RNAseq; type: in vivo
Text: The present example evaluated the impact of oral dosing of squalamine (ENT-01) on the gastrointestinal (GI) tissue of old mice (78 weeks). […] After 2 weeks of dosing the animals were euthanized, and the GI tracts sectioned into stomach, duodenum, jejunum, ileum, caecum, colon, and rectum. The stomach tissues were then sent for histology, and the transcriptomes analyzed by RNAseq.
The dosing schedule used to determine the effect of orally administered squalamine and MSI-1436 on the GI tracts of young and old mice was as follows. Male C57Bl/6 mice, aged 20 and 78 weeks, were obtained from Jackson labs. Animals were exposed to 12 hr light dark cycles and provided Teklad standard mouse diet and water ad lib.
Animals were dosed once daily by oral gavage in the morning for a total of 14 days. Animals were fasted 3-4 hours prior to dosing and 1 hour following. The test article was dissolved in 0.5% hydroxypropylcellulose in water. On day 15 the animals were euthanized by CO2 asphyxiation, necropsied, and tissues prepared for histology and RNAseq analysis.
The GI tracts of the animals were sectioned into stomach, duodenum, jejunum, ileum, caecum, colon, and rectum. The tissues were then sent for histology, and the transcriptomes analyzed by RNAseq.

[2] = Absorption / oral bioavailability of aminosterols; type: in vivo; conditions: oral administration
[3] = Phase 2a (n = 34), drug related adverse events; type: in vivo, human
[4] = human, in vivo, 25 days
[5] = orally administered; mice with constipation due to overexpression of human αS; cited from earlier work
[6] = intravenous administration; cited from earlier work
[7] = Phase 2(b) study, aminosterol dosage and body position, Parkinson's disease patients
[8] = 15 patients with assessable MMSE improvement

SMILES: CCCCC(F)(F)[C@@]1(O)CC[C@H]2[C@@H](CC(=O)[C@@H]2CCCCCCC(=O)O)O1 [Lubiprostone]
- share of treated in whom effective [1]: about 50%

SMILES: CC(C)[C@@H](CC[C@@H](C)[C@H]1CC[C@H]2[C@@H]3[C@H](O)C[C@H]4C[C@@H](NCCCNCCCCNCCCN)CC[C@]4(C)[C@H]3CC[C@]12C)OS(=O)(=O)O [aminosterol 1436]
- initiation of aggregation of the α-synuclein protein (α-synuclein protein): inhibit the initiation of aggregation

SMILES: CC(C)[C@@H](CC[C@@H](C)[C@H]1CC[C@H]2[C@@H]3[C@H](O)C[C@H]4C[C@@H](NCCCNCCCCN)CC[C@]4(C)[C@H]3CC[C@]12C)OS(=O)(=O)O [squalamine]
- Corneodesmosin mRNA % increase (mouse stomach mRNA; old + Ent-01 vs old mice): 94%
- Cornifelin mRNA % increase (mouse stomach mRNA; old + Ent-01 vs old mice): 261%
- Dermokine mRNA % increase (mouse stomach mRNA; old + Ent-01 vs old mice): 290%
- Filaggrin mRNA % increase (mouse stomach mRNA; old + Ent-01 vs old mice): 671%
- H19_imprinted_maternally_expressed_transcript mRNA % increase (mouse stomach mRNA; old + Ent-01 vs old mice): 656%
- Hornerin mRNA % increase (mouse stomach mRNA; old + Ent-01 vs old mice): 253%
- Loricrin mRNA % increase (mouse stomach mRNA; old + Ent-01 vs old mice): 381%
- Myoglobin mRNA % increase (mouse stomach mRNA; old + Ent-01 vs old mice): 437%
- Sciellin mRNA % increase (mouse stomach mRNA; old + Ent-01 vs old mice): 219%
- caspase_14 mRNA % increase (mouse stomach mRNA; old + Ent-01 vs old mice): 664%
- collagen_type_XVII_alpha_1 mRNA % increase (mouse stomach mRNA; old + Ent-01 vs old mice): 256%
- cystatin_E/M mRNA % increase (mouse stomach mRNA; old + Ent-01 vs old mice): 491%
- desmocollin_1 mRNA % increase (mouse stomach mRNA; old + Ent-01 vs old mice): 104%
- desmoglein_1_beta mRNA % increase (mouse stomach mRNA; old + Ent-01 vs old mice): 184%
- gap_junction_protein_beta_4 mRNA % increase (mouse stomach mRNA; old + Ent-01 vs old mice): 470%
- gap_junction_protein_beta_6 mRNA % increase (mouse stomach mRNA; old + Ent-01 vs old mice): 455%
- kallikrein_related-peptidase_7_(chymotryptic_stratum mRNA % increase) (mouse stomach mRNA; old + Ent-01 vs old mice): 847%
- keratin_1 mRNA % increase (mouse stomach mRNA; old + Ent-01 vs old mice): 425%
- keratin_10 mRNA % increase (mouse stomach mRNA; old + Ent-01 vs old mice): 610%
- keratinocyte_differentiation_associated_protein mRNA % increase (mouse stomach mRNA; old + Ent-01 vs old mice): 407%
- keratinocyte_expressed_proline-rich mRNA % increase (mouse stomach mRNA; old + Ent-01 vs old mice): 270%
- late_cornified_envelope_1A1 mRNA % increase (mouse stomach mRNA; old + Ent-01 vs old mice): 339%
- late_cornified_envelope_1A2 mRNA % increase (mouse stomach mRNA; old + Ent-01 vs old mice): 361%
- late_cornified_envelope_1B mRNA % increase (mouse stomach mRNA; old + Ent-01 vs old mice): 471%
- late_cornified_envelope_1C mRNA % increase (mouse stomach mRNA; old + Ent-01 vs old mice): 338%
- late_cornified_envelope_1E mRNA % increase (mouse stomach mRNA; old + Ent-01 vs old mice): 340%
- late_cornified_envelope_1F mRNA % increase (mouse stomach mRNA; old + Ent-01 vs old mice): 338%
- late_cornified_envelope_1G mRNA % increase (mouse stomach mRNA; old + Ent-01 vs old mice): 197%
- late_cornified_envelope_1H mRNA % increase (mouse stomach mRNA; old + Ent-01 vs old mice): 233%
- late_cornified_envelope_1I mRNA % increase (mouse stomach mRNA; old + Ent-01 vs old mice): 654%
- late_cornified_envelope_1J mRNA % increase (mouse stomach mRNA; old + Ent-01 vs old mice): 296%
- late_cornified_envelope_1L mRNA % increase (mouse stomach mRNA; old + Ent-01 vs old mice): 365%
- late_cornified_envelope_1M mRNA % increase (mouse stomach mRNA; old + Ent-01 vs old mice): 656%
- late_cornified_envelope_3C mRNA % increase (mouse stomach mRNA; old + Ent-01 vs old mice): 130%
- late_cornified_envelope_3E mRNA % increase (mouse stomach mRNA; old + Ent-01 vs old mice): 205%
- late_cornified_envelope_3F mRNA % increase (mouse stomach mRNA; old + Ent-01 vs old mice): 192%
- lectin_galactose_binding_soluble_7 mRNA % increase (mouse stomach mRNA; old + Ent-01 vs old mice): 481%
- myosin_binding_protein_C_slow-type mRNA % increase (mouse stomach mRNA; old + Ent-01 vs old mice): 209%
- myosin_heavy_polypeptide_1_skeletal_muscle mRNA % increase (mouse stomach mRNA; old + Ent-01 vs old mice): 289%
- myosin_heavy_polypeptide_8_skeletal_muscle mRNA % increase (mouse stomach mRNA; old + Ent-01 vs old mice): 371%
- myosin_light_chain_phosphorylatable_fast_skeletal mRNA % increase (mouse stomach mRNA; old + Ent-01 vs old mice): 295%
- myosin_light_polypeptide_3 mRNA % increase (mouse stomach mRNA; old + Ent-01 vs old mice): 747%
- myozenin_1 mRNA % increase (mouse stomach mRNA; old + Ent-01 vs old mice): 524%
- myozenin_2 mRNA % increase (mouse stomach mRNA; old + Ent-01 vs old mice): 341%
- titin-cap mRNA % increase (mouse stomach mRNA; old + Ent-01 vs old mice): 298%
- mRNA levels for all of the genes in Table 4 (mouse stomach mRNA; old mice after treatment with squalamine): significant increase
- absorption in blood [2]: less than 0.3%
- Drug related adverse event Diarrhea, Mild, % [3]: (35) %
- Drug related adverse event Diarrhea, Moderate, % [3]: (5.8) %
- Drug related adverse event Diarrhea, Severe, % [3]: (2.9) %
- Drug related adverse event Dizziness, Mild, % [3]: (20.5) %
- Drug related adverse event Dizziness, Moderate, % [3]: (2.9) %
- Drug related adverse event Nausea, Mild, % [3]: (47) %
- Drug related adverse event Nausea, Moderate, % [3]: (2.9) %
- Drug related adverse event Vomiting, Mild, % [3]: (5.8) %
- Drug related adverse event Diarrhea, Mild, % [4]: (2.7) %
- Drug related adverse event Diarrhea, Moderate, % [4]: (2.7) %
- Drug related adverse event Diarrhea, Severe, % [4]: (2.7) %
- Drug related adverse event Dizziness, Mild, % [4]: (3) %
- Drug related adverse event Nausea, Mild, % [4]: (6.3) %
- Drug related adverse event Nausea, Moderate, % [4]: (2.7) %
- Drug related adverse event Vomiting, Mild, % [4]: (2.7) %
- Drug related adverse event Vomiting, Moderate, % [4]: (2.7) %
- Unrelated adverse event Contusion*, Mild, % [4]: (2.1) %
- Unrelated adverse event Dizziness, Mild, % [4]: (4.2) %
- Unrelated adverse event Fall*, Mild, % [4]: (4.2) %
- Unrelated adverse event Fall*, Moderate, % [4]: (2.1) %
- Unrelated adverse event Pain*, Mild, % [4]: (2.1) %
- Unrelated adverse event Pain*, Moderate, % [4]: (2.1) %
- Unrelated adverse event Phlebotomy site irritation*, Mild, % [4]: (2.1) %
- Unrelated adverse event Rectal burning, Mild, % [4]: (2.1) %
- Unrelated adverse event Rib fracture*, Mild, % [4]: (2.1) %
- Unrelated adverse event Squamous cell Ca*, Mild, % [4]: (2.1) %
- Unrelated adverse event Syncope*, Moderate, % [4]: (2.1) %
- initiation of aggregation of the α-synuclein protein (α-synuclein protein): inhibit the initiation of aggregation
- gastrointestinal motility [5]: stimulates gastrointestinal motility
- gastrointestinal motility [6]: not associated with increased gastrointestinal motility
- patients with MMSE improvement of 3 or more points [7, 8]: 33%
- patients with MMSE improvement of 4 or more points [7, 8]: 20%
- patients with MMSE improvement of 5 or more points [7, 8]: 13%
- patients with MMSE improvement of 6 or more points [7, 8]: 1/15
- patients responding to drug treatment (increase in CSBM) ([7]; 29 patients with assessable bowel movements, 75 or 150 mg/daily, 25 days): About 80%
- hallucinations ([7]; Phase 2(b), PD patients): reduction in hallucinations
- sleep fragmentation ([7]; Phase 2(b), PD patients): decrease in sleep fragmentation
- total sleep time ([7]; Phase 2(b), PD patients): increase in total sleep time
- bowel function, MMSE scores, amount and quality of sleep, other neurological indices (UPDRS) ([7]; dose taken sitting or standing, compared to lying down): qualitative improvements
- Unrelated adverse event Flu-like symptoms*, Mild, % ([7]; n = 47): (6.3) %
